Laboratory results published in US20220362182A1, “METHODS FOR REVERSING HEPATIC STEATOSIS” (BRIGHTSEED, INC., priority 2020, published 2022).
“Also recorded” adds a separate entry of the source.

What was measured:
HNF4α = molecular target: T1, HNF4α (Mus musculus, UniProt P49698); experiment: hepatic HNF4α expression in DIO mice; format: in vivo; details: 200 mg/kg bid IP, 14 days; for hepatic HNF4α protein (nuclear staining): 200 mg/kg
T1 construct: from tissue; host or cells: liver of C57BL/6 J DIO male mice
T1 sequence (P49698 1-474): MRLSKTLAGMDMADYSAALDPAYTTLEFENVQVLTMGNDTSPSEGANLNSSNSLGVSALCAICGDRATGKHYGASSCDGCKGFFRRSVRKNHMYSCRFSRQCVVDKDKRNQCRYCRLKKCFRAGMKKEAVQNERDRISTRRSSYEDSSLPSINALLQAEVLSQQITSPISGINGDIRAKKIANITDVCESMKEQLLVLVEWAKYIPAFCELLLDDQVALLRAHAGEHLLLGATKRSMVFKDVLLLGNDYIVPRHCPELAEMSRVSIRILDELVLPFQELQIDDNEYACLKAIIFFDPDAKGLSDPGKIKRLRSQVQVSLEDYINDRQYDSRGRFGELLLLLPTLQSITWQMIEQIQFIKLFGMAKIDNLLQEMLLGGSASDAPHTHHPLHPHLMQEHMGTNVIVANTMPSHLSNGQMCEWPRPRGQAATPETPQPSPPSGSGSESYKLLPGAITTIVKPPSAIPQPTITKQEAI
Description: (§1) Quantitative PCR (Q-PCR) from in vitro cell culture experiments used total RNA purified using RNeasy Kits (Qiagen). For liver tissue samples, total RNA was isolated using Trizol (Invitrogen) and prepared for RNAseq (mouse liver DMSO and NCT, N=3). cDNA was amplified using 3 μg of total RNA using qScript cDNA SuperMix (Quanta BioSciences, Beverly, Mass., USA). QPCR analysis was performed using SYBR® Select Master Mix (Applied Biosystems) and ABI 7900HT (Applied Biosystems, Thermo Fisher Scientific). The Ct values of mRNA expression were then normalized to the 18 s rRNA values and are expressed as fold change over samples from mice fed normal chow for in vivo experiments or DMSO controls for cell culture experiments.
For dose response experiments, mice were injected intraperitoneally with 10% DMSO as vehicle control or 4 different doses of NCT (30, 60, 120 and 240 mg/kg of body weight) dissolved in 10% DMSO. Mice received 2 doses per day with a 5 h interval between injections for 3 days. To test the effect of NCT (Sundia MediTech Company, Ltd., Custom synthesis), 200 mg/kg was injected IP bid for 14 days. On day 15, mice received a final dose of NCT followed by IP injection with 3 g/kg dextrose. One h later, blood samples were collected and mice were euthanized using pentobarbital. Total mouse, liver and epididymal fat pad weights were measured. Dissected liver samples were washed in cold PBS, cut into small pieces and distributed for analyses. For RNA isolation and ELISA, liver samples were snap frozen using liquid nitrogen and stored at −80° C. […]
Frozen liver sections were permeabilized using 0.3% Triton-X and incubated in antigen retrieval solution (Antigen retrieval citrate, Biogenex) at sub boiling temperature for 10 min. […] Slides were mounted using fluorescence mounting medium and images were obtained at 40× magnification using an Olympus IX71 fluorescence microscope. Fluorescence intensity of HNF4α-stained nuclei was calculated using MetaMorph TL software (version 7.6.5.0, Olympus).

hepatic steatosis = experiment: oral administration in mice (hepatic steatosis); format: in vivo, mouse; details: subsequent studies
CYP26A1 mRNA = experiment: CYP26a1 mRNA in primary human hepatocytes; format: cell-based; details: high fat media, 5, 15, 40 µM, Day 4 to Day 10
Description: Experiments with primary human hepatocytes were performed by CN-Bio (Cambridge, UK). Primary human hepatocytes (PHHs), human Kupffer cells (HKs) and human stellate cells (HSCs) were seeded onto CN-Bio's PhysioMimix LC12 MPS culture plates at 6×10^5 cells for PHHs and 6×10^4 cells for HKs and HSCs in 1.6 ml of CN-Bio's HEP-lean media with 5% FCS. Throughout the experiment the cells were maintained at a flow rate of 1 μl/s. After 24 h (Day 1) of seeding, the media was changed to HEP-lean media and the cells were incubated until day 4 to allow the cells to form microtissues. At day 4 post seeding, media was changed to HEP-fat media and treated with DMSO or NCT (5, 15, 40 μM). Media was replaced on days 6 and 8. Cells were harvested on day 10 for RNA extraction. Data are presented as mean ±SEM of three or more samples as indicated. Statistical significance was assessed using Student's t-test, ANOVA or R^2 coefficient of correlation.

SPNS2 mRNA = experiment: SPNS2 qPCR in mouse pancreas; format: in vivo
Description: as §1

[1] = format: in vivo; details: mice, 30, 60, 120 and 240 mg/kg bid for 3 days, IP
Description: For dose response experiments, mice were injected intraperitoneally with 10% DMSO as vehicle control or 4 different doses of NCT (30, 60, 120 and 240 mg/kg of body weight) dissolved in 10% DMSO. Mice received 2 doses per day with a 5 h interval between injections for 3 days. To test the effect of NCT (Sundia MediTech Company, Ltd., Custom synthesis), 200 mg/kg was injected IP bid for 14 days. On day 15, mice received a final dose of NCT followed by IP injection with 3 g/kg dextrose. One h later, blood samples were collected and mice were euthanized using pentobarbital. Total mouse, liver and epididymal fat pad weights were measured. Dissected liver samples were washed in cold PBS, cut into small pieces and distributed for analyses. For RNA isolation and ELISA, liver samples were snap frozen using liquid nitrogen and stored at −80° C. For histomorphometry and immunofluorescence analysis, liver samples were fixed in 4% of cold PFA and processed for histology. All animal experiments were approved by the Institutional Animal Care and Use Committee (IACUC) of the Sanford Burnham Prebys Medical Discovery Institute in accordance with national regulations.
Having established that NCT reduces the level of stored fat in cells in vitro, it was of interest to determine its effect in vivo. […]

p62 = p62 Western blot in T6PNE cells; format: cell-based, human; details: NCT 10 μM, RA 10 μM, fenretinide
Description: Whole-cell extracts were prepared by incubation in RIPA buffer (Invitrogen) containing protease inhibitors (Calbiochem, San Diego, Calif.). Protein ([…]) was separated on 12% or 16% Tri-Glycine gels (Invitrogen) and transferred to Immobilon P membrane (0.2 μm pore, Millipore). After 1 h in phosphate-buffered saline-Tween (PBST) with 3% milk, membrane was incubated with antibodies to HNF4α (mouse, Novus, 1:1000), LC3B (rabbit, Novus, 1:500), p62 (SQSTM1, mouse, Santa Cruz, 1:1000) or β-actin (mouse, Santa Cruz, 1:2000), followed by secondary antibody conjugated to horseradish peroxidase (1:5000, Jackson Immune).

SMILES: O=C(/C=C/c1ccc(O)c(O)c1)NCCc1ccc(O)cc1 [NCT, N-trans-caffeoyltyramine]
- hepatic HNF4α mRNA (HNF4α): reversed the loss
- hepatic HNF4α protein (nuclear staining) (HNF4α): reversed the loss of HNF4α protein; also recorded: recovery of normal hepatic HNF4α expression
- hepatic HNF4α protein (nuclear staining) (HNF4α; listed as N-trans-caffeoyltyramine): reversed that reduction; also recorded: increased the HNF4a staining
- hepatic steatosis after oral administration (hepatic steatosis): effective in reducing hepatic steatosis in mice
- CYP26a1 mRNA (CYP26A1 mRNA): induced CYP26a1; also recorded: significantly induced
- SPNS2 expression in mouse pancreas (SPNS2 mRNA): induced SPNS2 expression
- tolerability [1]: well tolerated
- p62 protein expression normalized to actin (p62): induced increases
